Source: patent US20240315993A1, “ANTIPARASITIC COMPOUNDS” (Intervet Inc., priority 2021, published 2024)

Tests used:
[1] = system: juvenile soft ticks (Ornithodoros moubata); test: Guinea pig - efficacy against argaside tick; type: in vivo; settings: for effective to control ticks: 5 mg/kg
Description: (§1) Guinea pigs were locally co-infested (using an infestation device on a shaved skin area) with juvenile soft ticks (Ornithodoros moubata) and bed bugs (Cimex lectularius) before the treatment day (Day 0) to provide a baseline-negative control value. Guinea pigs were treated orally (by gavage) or subcutaneously at a dose of 5 mg/kg bodyweight of a test compound in a formulation of 10% DMF/Emulsifier+90% Aqua ad injectabilia.
(§2) Repeated local infestations with both parasites were performed at different time points after treatment. Within approximately 45 min after each infestation ten engorged ticks and ten engorged bed bugs were • collected and the percentage of dead and damaged parasites per species were • assessed approximately 24 hours following collection. The efficacy was • calculated as % of inhibition ‘killed+damaged’ parasites in a treated group in comparison to the baseline-negative control (using a modified Schneider Orelli's formula).
(§3) Results: Activity of the test compounds at different evaluation time-points (≥80% inhibition were found active): […]

[2] = system: bed bugs (Cimex lectularius); test: Guinea pig - efficacy against bed bug; type: in vivo; settings: for effective to control bed bugs: 5 mg/kg
Description: as §1, §2, §3

[3] = 5 mg/kg subcutaneous, after 7 days
[4] = 5 mg/kg subcutaneous, after 10 days
[5] = 5 mg/kg subcutaneous, after 14 days
[6] = 5 mg/kg subcutaneous, after 17 days
[7] = at least until Day 10, both administration routes (oral, subcutaneous)
[8] = 5 mg/kg subcutaneous, after 21 days
[9] = 5 mg/kg subcutaneous, after 24 days
[10] = 5 mg/kg subcutaneous, after 28 days
[11] = 5 mg/kg subcutaneous, after 31 days
[12] = for at least one week, both administration routes
[13] = 5 mg/kg subcutaneous, after 35 days

O=C(Nc1ncc(F)cc1F)c1cc(NC(=O)C2C(c3cc(Cl)c(F)c(Cl)c3)C2(Cl)Cl)ccc1Cl (stereo not drawn) [Compound 469]
activity against tick nymphs (≥80% inhibition, killed+damaged) ([1]; 5 mg/kg oral, Day 0): immediate activity | activity against tick nymphs (≥80% inhibition, killed+damaged) ([1]; 5 mg/kg oral, after 7 days): activity | activity against tick nymphs (≥80% inhibition, killed+damaged) ([1]; 5 mg/kg oral, after 10 days): activity | activity against tick nymphs (≥80% inhibition, killed+damaged) ([1]; 5 mg/kg subcutaneous, Day 0): immediate activity | activity against tick nymphs (≥80% inhibition, killed+damaged) [1, 3]: activity | activity against tick nymphs (≥80% inhibition, killed+damaged) [1, 4]: activity | activity against tick nymphs (≥80% inhibition, killed+damaged) [1, 5]: activity | activity against tick nymphs (≥80% inhibition, killed+damaged) [1, 6]: activity | effective to control ticks [1, 7]: 100% | activity against bed bugs (≥80% inhibition, killed+damaged) ([2]; 5 mg/kg oral, Day 0): immediate activity | activity against bed bugs (≥80% inhibition, killed+damaged) ([2]; 5 mg/kg oral, after 7 days): activity | activity against bed bugs (≥80% inhibition, killed+damaged) ([2]; 5 mg/kg oral, after 10 days): activity | activity against bed bugs (≥80% inhibition, killed+damaged) ([2]; 5 mg/kg subcutaneous, Day 0): immediate activity | activity against bed bugs (≥80% inhibition, killed+damaged) [2, 3]: activity | activity against bed bugs (≥80% inhibition, killed+damaged) [2, 4]: activity | activity against bed bugs (≥80% inhibition, killed+damaged) [2, 5]: activity | activity against bed bugs (≥80% inhibition, killed+damaged) [2, 6]: activity | activity against bed bugs (≥80% inhibition, killed+damaged) [2, 8]: activity | effective to control bed bugs [2, 7]: 100%

O=C(Nc1ncc(F)cc1F)c1cc(NC(=O)C2C(c3cc(Cl)c(Cl)c(Cl)c3)C2(Cl)Cl)ccc1Cl (stereo not drawn) [Compound 470]
activity against tick nymphs (≥80% inhibition, killed+damaged) ([1]; 5 mg/kg oral, Day 0): immediate activity | activity against tick nymphs (≥80% inhibition, killed+damaged) ([1]; 5 mg/kg oral, after 7 days): activity | activity against tick nymphs (≥80% inhibition, killed+damaged) ([1]; 5 mg/kg oral, after 10 days): activity | activity against tick nymphs (≥80% inhibition, killed+damaged) ([1]; 5 mg/kg oral, after 14 days): activity | activity against tick nymphs (≥80% inhibition, killed+damaged) ([1]; 5 mg/kg oral, after 17 days): activity | activity against tick nymphs (≥80% inhibition, killed+damaged) ([1]; 5 mg/kg subcutaneous, Day 0): immediate activity | activity against tick nymphs (≥80% inhibition, killed+damaged) [1, 3]: activity | activity against tick nymphs (≥80% inhibition, killed+damaged) [1, 4]: activity | activity against tick nymphs (≥80% inhibition, killed+damaged) [1, 5]: activity | activity against tick nymphs (≥80% inhibition, killed+damaged) [1, 6]: activity | activity against tick nymphs (≥80% inhibition, killed+damaged) [1, 8]: activity | activity against tick nymphs (≥80% inhibition, killed+damaged) [1, 9]: activity | activity against tick nymphs (≥80% inhibition, killed+damaged) [1, 10]: activity | activity against tick nymphs (≥80% inhibition, killed+damaged) [1, 11]: activity | effective to control ticks [1, 12]: 100% | activity against bed bugs (≥80% inhibition, killed+damaged) ([2]; 5 mg/kg oral, Day 0): immediate activity | activity against bed bugs (≥80% inhibition, killed+damaged) ([2]; 5 mg/kg oral, after 7 days): activity | activity against bed bugs (≥80% inhibition, killed+damaged) ([2]; 5 mg/kg oral, after 10 days): activity | activity against bed bugs (≥80% inhibition, killed+damaged) ([2]; 5 mg/kg oral, after 14 days): activity | activity against bed bugs (≥80% inhibition, killed+damaged) ([2]; 5 mg/kg oral, after 17 days): activity | activity against bed bugs (≥80% inhibition, killed+damaged) ([2]; 5 mg/kg oral, after 21 days): activity | activity against bed bugs (≥80% inhibition, killed+damaged) ([2]; 5 mg/kg oral, after 24 days): activity | activity against bed bugs (≥80% inhibition, killed+damaged) ([2]; 5 mg/kg oral, after 28 days): activity | activity against bed bugs (≥80% inhibition, killed+damaged) ([2]; 5 mg/kg subcutaneous, Day 0): immediate activity | activity against bed bugs (≥80% inhibition, killed+damaged) [2, 3]: activity | activity against bed bugs (≥80% inhibition, killed+damaged) [2, 4]: activity | activity against bed bugs (≥80% inhibition, killed+damaged) [2, 5]: activity | activity against bed bugs (≥80% inhibition, killed+damaged) [2, 6]: activity | activity against bed bugs (≥80% inhibition, killed+damaged) [2, 8]: activity | activity against bed bugs (≥80% inhibition, killed+damaged) [2, 9]: activity | activity against bed bugs (≥80% inhibition, killed+damaged) [2, 10]: activity | activity against bed bugs (≥80% inhibition, killed+damaged) [2, 11]: activity | activity against bed bugs (≥80% inhibition, killed+damaged) [2, 13]: activity | effective to control bed bugs [2, 12]: 100%

O=C(Nc1ncc(F)cc1F)c1cc(NC(=O)C2C(c3cc(C(F)(F)F)cc(C(F)(F)F)c3)C2(Cl)Cl)ccc1Cl (stereo not drawn) [Compound 471]
activity against tick nymphs (≥80% inhibition, killed+damaged) ([1]; 5 mg/kg oral, Day 0): immediate activity | activity against tick nymphs (≥80% inhibition, killed+damaged) ([1]; 5 mg/kg oral, after 7 days): activity | activity against tick nymphs (≥80% inhibition, killed+damaged) ([1]; 5 mg/kg oral, after 10 days): activity | activity against tick nymphs (≥80% inhibition, killed+damaged) ([1]; 5 mg/kg oral, after 14 days): activity | activity against tick nymphs (≥80% inhibition, killed+damaged) ([1]; 5 mg/kg oral, after 17 days): activity | activity against tick nymphs (≥80% inhibition, killed+damaged) ([1]; 5 mg/kg oral, after 21 days): activity | activity against tick nymphs (≥80% inhibition, killed+damaged) ([1]; 5 mg/kg oral, after 24 days): activity | activity against tick nymphs (≥80% inhibition, killed+damaged) ([1]; 5 mg/kg oral, after 28 days): activity | activity against tick nymphs (≥80% inhibition, killed+damaged) ([1]; 5 mg/kg oral, after 31 days): activity | activity against tick nymphs (≥80% inhibition, killed+damaged) ([1]; 5 mg/kg oral, after 35 days): activity | activity against tick nymphs (≥80% inhibition, killed+damaged) ([1]; 5 mg/kg subcutaneous, Day 0): immediate activity | activity against tick nymphs (≥80% inhibition, killed+damaged) [1, 3]: activity | activity against tick nymphs (≥80% inhibition, killed+damaged) [1, 4]: activity | activity against tick nymphs (≥80% inhibition, killed+damaged) [1, 5]: activity | activity against tick nymphs (≥80% inhibition, killed+damaged) [1, 6]: activity | activity against tick nymphs (≥80% inhibition, killed+damaged) [1, 8]: activity | activity against tick nymphs (≥80% inhibition, killed+damaged) [1, 9]: activity | activity against tick nymphs (≥80% inhibition, killed+damaged) [1, 10]: activity | activity against tick nymphs (≥80% inhibition, killed+damaged) [1, 11]: activity | activity against tick nymphs (≥80% inhibition, killed+damaged) [1, 13]: activity | effective to control ticks [1, 12]: 100% | activity against bed bugs (≥80% inhibition, killed+damaged) ([2]; 5 mg/kg oral, Day 0): immediate activity | activity against bed bugs (≥80% inhibition, killed+damaged) ([2]; 5 mg/kg oral, after 7 days): activity | activity against bed bugs (≥80% inhibition, killed+damaged) ([2]; 5 mg/kg oral, after 10 days): activity | activity against bed bugs (≥80% inhibition, killed+damaged) ([2]; 5 mg/kg oral, after 14 days): activity | activity against bed bugs (≥80% inhibition, killed+damaged) ([2]; 5 mg/kg oral, after 17 days): activity | activity against bed bugs (≥80% inhibition, killed+damaged) ([2]; 5 mg/kg oral, after 21 days): activity | activity against bed bugs (≥80% inhibition, killed+damaged) ([2]; 5 mg/kg oral, after 24 days): activity | activity against bed bugs (≥80% inhibition, killed+damaged) ([2]; 5 mg/kg oral, after 28 days): activity | activity against bed bugs (≥80% inhibition, killed+damaged) ([2]; 5 mg/kg oral, after 31 days): activity | activity against bed bugs (≥80% inhibition, killed+damaged) ([2]; 5 mg/kg oral, after 35 days): activity | activity against bed bugs (≥80% inhibition, killed+damaged) ([2]; 5 mg/kg subcutaneous, Day 0): immediate activity | activity against bed bugs (≥80% inhibition, killed+damaged) [2, 3]: activity | activity against bed bugs (≥80% inhibition, killed+damaged) [2, 4]: activity | activity against bed bugs (≥80% inhibition, killed+damaged) [2, 5]: activity | activity against bed bugs (≥80% inhibition, killed+damaged) [2, 6]: activity | activity against bed bugs (≥80% inhibition, killed+damaged) [2, 8]: activity | activity against bed bugs (≥80% inhibition, killed+damaged) [2, 9]: activity | activity against bed bugs (≥80% inhibition, killed+damaged) [2, 10]: activity | activity against bed bugs (≥80% inhibition, killed+damaged) [2, 11]: activity | activity against bed bugs (≥80% inhibition, killed+damaged) [2, 13]: activity | effective to control bed bugs [2, 12]: 100%

O=C(Nc1ccc(F)cc1F)c1cc(NC(=O)C2C(c3cc(C(F)(F)F)cc(C(F)(F)F)c3)C2(Cl)Cl)ccc1Cl (stereo not drawn) [Compound 472]
activity against tick nymphs (≥80% inhibition, killed+damaged) ([1]; 5 mg/kg oral, Day 0): immediate activity | activity against tick nymphs (≥80% inhibition, killed+damaged) ([1]; 5 mg/kg subcutaneous, Day 0): immediate activity | activity against bed bugs (≥80% inhibition, killed+damaged) ([2]; 5 mg/kg oral, Day 0): immediate activity | activity against bed bugs (≥80% inhibition, killed+damaged) ([2]; 5 mg/kg subcutaneous, Day 0): immediate activity
